The text below walks through data of US11142547B2, “Polypeptide and use thereof” (Genoimmune Therapeutics Co., Ltd., priority 2016, dated 2021).

What all share (type): in vivo, NOD/SCID mice
In assay [1] the test system is human non-small cell lung adenocarcinoma cell line H2087—polypeptide FLLGNLFFV (SEQ ID NO:1). The assay can be described thus: Polypeptide-specific DC-CTL vaccine in subcutaneous tumor-modeled mice. To be noted: CTLs stimulated by DCs loaded with the polypeptide, i.v. 1×10^8 cells/mouse, vs wild-type polypeptide group; FIG. 8. The protocol: (§1) The human non-small cell lung adenocarcinoma cell line NCI-H2087 which is HLA-A*0201 positive was purchased from ATCC (Cat. No.: CRL-5922). The cell line NCI-H2087 was incubated in the Dulbecco's Modified Eagle Medium (DMEM) containing 10% fetal calf serum, 100 U/mL penicillin and 100 U/mL streptomycin in an incubator under 37° C. and 5% CO2, and subsequently infected with the lentivirus expressing the mutant polypeptide (depicted in […], SEQ ID NO:1) as prepared in 6.1. Afterwards, the infected cells were incubated with the Puromycin antibiotic for a certain duration to screen out those viable infected cells, i.e., obtaining the human non-small cell lung adenocarcinoma cell line H2087 which expresses the mutant polypeptide (depicted in […], SEQ ID NO:1) and named as the human non-small cell lung adenocarcinoma cell line H2087—polypeptide […] (SEQ ID NO:1).
(§2) After isolated with Ficoll solution from 600 to 900 ml anticoagulant peripheral blood from a healthy volunteer, the collected PBMCs in a concentration of 2×10^7 cells/0.5 ml were intraperitoneally injected into each of 300 NOD SCID mice without immune leakage, so as to reconstruct a human immune system in the NOD SCID mice, with the mice after 4 weeks selected for subsequent inoculation of the human non-small cell lung adenocarcinoma cell line H2087—polypeptide […] obtained in 6.2.
(§3) The human non-small cell lung adenocarcinoma cell line H2087—polypeptide […] (SEQ ID NO:1) obtained in 6.2 was incubated in DMEM medium containing 10% fetal calf serum, 100 U/mL penicillin and 100 U/mL streptomycin in an incubator under 37° C. and 5% CO2, and then the cells were centrifuged at 3000 rpm for collection. The collected cells were washed with sterile physiological saline three times, and then diluted appropriately. To 40 μl tumor cell suspension, 10 μl 0.4% […] was added for staining, subsequently the tumor cell suspension in a concentration of 1×10^8 cells/ml was prepared after counting under microscope. 100 μl of the tumor cell suspension was inoculated into each of the NOD/SCID mice by subcutaneous injection at 4 weeks post immune reconstruction in 6.3, with daily observation of the presence/absence of infection at inoculation sites, the increase/decrease of tumor size (in the case of presence of a tumor), and measurement of the major axis (a) and the minor axis (b) of a tumor by a vernier caliper every 2 or 3 days (where the tumor size=a×b×b/2). After 7 days from inoculation, a tumor in a size of rice grain was touchable at the inoculation site. After that, the subcutaneous tumor-modeled NOD/SCID mice (modeled with H2087—polypeptide […] (SEQ ID NO:1)) were treated with a polypeptide+complete Freund's adjuvant vaccine, a polypeptide+DCs vaccine, a lentivirus-infected DCs vaccine and a DC-CTL vaccine respectively, with the tumor size and mouse survival rate observed and recorded every 2 days.
The CD8^+ T cells sorted with CD8 magnetic beads from PBLs in the example 8 were firstly stimulated by incubating with the DCs loaded with the wild-type polypeptide (depicted in […], SEQ ID NO:5), the DCs loaded with the mutant polypeptide (depicted in […], SEQ ID NO:1), the DCs loaded with the mutant polypeptide's variant (depicted in […], SEQ ID NO:2), the DCs loaded with the mutant polypeptide's variant (depicted in […], SEQ ID NO:3), and the DCs loaded with the mutant polypeptide's variant (depicted in […], SEQ ID NO:4), respectively, in a ratio of 1:4 of DCs:CD8^+ T cell, in an incubator under 37° C. and 5% CO2 in the presence of 500 IU/ml IL-2 and 50 ng/ml IL-7, with the second and third stimulations at week 2 and week 3 using DCs loaded with corresponding polypeptides respectively. The number of T lymphocytes was counted at day 0, 7, 14 and 21 post incubation, for calculation of cell proliferation index (PI), where PI=cell number after proliferation/cell number seeded. […]

Assay [2] has the same test system. Description: Polypeptide + Freund's adjuvant vaccine in subcutaneous tumor-modeled mice. As to conditions: adjuvant+polypeptide 100 μg s.c., vs adjuvant alone and adjuvant+wild-type polypeptide groups; FIG. 5. The protocol: as §1, §2, §3
The subcutaneous tumor-modeled NOD/SCID mice obtained in 6.4 of the example 6 were divided into 6 groups randomly as below, with 6 mice per group:
Except for the adjuvant alone group, mice in other 5 groups received first immunization, by subcutaneous injection at two sites of the mouse back with 100 μg wild-type polypeptide (depicted in […], SEQ ID NO:5), 100 μg mutant polypeptide (depicted in […], SEQ ID NO:1), 100 μg mutant polypeptide's variant (depicted in […], SEQ ID NO:2), 100 μg mutant polypeptide's variant (depicted in […], SEQ ID NO:3), and 100 μg mutant polypeptide's variant (depicted in […], SEQ ID NO:4), respectively, each of which was mixed with 150 μl Freund's complete adjuvant in PBS to a final volume of 300 μl. After 2 weeks, differently-immunized mice in 5 groups received respective same-dosage booster immunizations at 2 week interval for 4 times in total, with incomplete Freund's adjuvant for the latter three immunizations. […]

The test system is the same in assay [3]. Description: DC polypeptide vaccine in subcutaneous tumor-modeled mice. As to conditions: DCs loaded with the polypeptide, intracutaneous, vs DCs loaded with wild-type polypeptide; FIG. 6. The protocol:
as §1, §2, §3
Peripheral blood mononuclear cells (PBMCs) in 100 to 150 mL anticoagulant peripheral blood obtained from a healthy volunteer were isolated with Ficoll solution. The collected PBMCs suspended in the RPMI 1640 medium in a concentration of 2×10^6-3×10^6 cells/ml were incubated at 37° C. for 2 hours, obtaining adherent monocytes which can be induced into DCs, and non-adherent peripheral blood lymphocytes (PBLs) for use. Such the monocytes were induced into immature DCs in the presence of GM-CSF (1000 U/ml) and IL-4 (1000 U/ml), followed by inducing to mature DCs in the presence of IFN-γ (100 U/ml) and CD40L (10 ng/ml), as well as the subsequently added 10 μg/ml wild-type polypeptide (depicted in […], SEQ ID NO:5), 10 μg/ml mutant polypeptide (depicted in […], SEQ ID NO:1), 10 μg/ml mutant polypeptide's variant (depicted in […], SEQ ID NO:2), 10 μg/ml mutant polypeptide's variant (depicted in […], SEQ ID NO:3), and 10 μg/ml mutant polypeptide's variant (depicted in […], SEQ ID NO:4), respectively. […]

In the case of FLLGNLFFL, the Mouse survival period entry in assay [1] is recorded as “prolonging mouse survival period significantly”; in assay [2] it was “prolonging mouse survival period effectively”; in assay [3], “prolonging the mouse survival period”. Further, the Tumor growth result in assay [1] is on record as “inhibiting tumor growth”; in assay [2], “inhibiting tumor growth”; in assay [3], “mitigating tumor growth significantly”.

As to FMLGNLFFL, the Mouse survival period result in assay [1] was “prolonging mouse survival period significantly”; in assay [2], “prolonging mouse survival period effectively”; in assay [3] it was “prolonging the mouse survival period”. Further, the results for the Tumor growth result in assay [1], in assay [2] and in assay [3] were “inhibiting tumor growth”, “inhibiting tumor growth” and “mitigating tumor growth significantly”, respectively.

On to FLLGNLFFV, for which the Mouse survival period result in assay [1] is on record as “prolonging mouse survival period significantly”; in assay [2], “prolonging mouse survival period effectively”; in assay [3], “prolonging the mouse survival period”. Besides, the Tumor growth entry in assay [1] is “inhibiting tumor growth”; in assay [2] it was “inhibiting tumor growth”; in assay [3], “mitigating tumor growth significantly”.

In the case of FMLGNLFFV, the Mouse survival period result in assay [1] is listed as “prolonging mouse survival period significantly”; in assay [2] it was “prolonging mouse survival period effectively”; in assay [3], “prolonging the mouse survival period”. For the same sequence, the Tumor growth result is recorded as “inhibiting tumor growth” in assay [1], “inhibiting tumor growth” in assay [2] and “mitigating tumor growth significantly” in assay [3].
